# Results published in patent US20040029841A1, “Purinergic antagonists for treating depression” (priority 2002, published 2004).
# System: brain bioenergetic status
# Experiment: In vivo 31P magnetic resonance spectroscopy and T2 relaxation times of the brain (axial slice, bilateral basal ganglia) in healthy individuals taking oral SAMe
# Parameters: species or system human
# Description: This lowering was measured as a decrease in the ratio of beta ATP to total ^31P MRS metabolites and detected using magnetic resonance imaging (see, e.g., U.S. Pat. No. 6,258,794, hereby incorporated by reference).
# Five healthy men and seven healthy women self-administered 1600 mg of oral SAMe daily. The effect of SAMe on brain bioenergetic status, membrane integrity, and brain transverse relaxation time (T2) was then examined. In vivo ^31P magnetic resonance spectra and relaxation times were acquired, at baseline and after 14 and 28 days of treatment, from an axial slice (50 mm) encompassing the bilateral basal ganglia using a 1.5-T scanner. […] The changes observed in PCr and β-NTP are consistent with the report that SAMe is involved in the production of creatine, which in turn is phosphorylated to PCr at the expense of β-NTP (Braissant et al., Brain Res. Mol. Brain Res. 2001, 86:193-201).
# As changes in T2 relaxation times are inversely related to alterations in steady state blood flow, the decrease in T2 observed in women corresponds to a 3.8% increase in cerebral blood flow.
smiles,measurement,setting,value
"C[S+](CC[C@H](N)C(=O)O)C[C@H]1O[C@@H](n2cnc3c(N)ncnc32)[C@H](O)[C@@H]1O (some centres unmarked) [SAMe, S-adenosylmethionine]",circulating levels of ATP (ratio of beta ATP to total 31P MRS metabolites),"healthy individuals, on average, magnetic resonance",lowering of circulating levels of ATP
same,mole percent concentrations of phosphocreatine (PCr),"healthy men and women, 1600 mg oral SAMe daily, 14 and 28 days of treatment vs baseline, 31P MRS, basal ganglia slice",significantly higher than at baseline
same,"mole percent beta nucleoside triphosphate (β-NTP) levels, predominantly adenosine triphosphate in the brain","healthy men and women, 1600 mg oral SAMe daily, after treatment vs baseline, 31P MRS, FIG. 1",decreased significantly
same,brain transverse relaxation time (T2),"women vs men at the end of the treatment regimen, 1600 mg oral SAMe daily",significantly lower T2 values than men
same,increase in cerebral blood flow,"women, worked out from the decrease in T2 relaxation time",3.8%
